Assay results reported in patent EP0908457B1, “3-(1,2-benzisothiazol- and isoxazol-5-Y1)-2,4(1H,3H)-pyrimidinedione or thione and 3-(1,2-benzisothiazol- and isoxazol-5-y1)-4(3H)-pyrimidinone or thione herbicidal agents” (BASF AKTIENGESELLSCHAFT, priority 1997, dated 1999).

How the values were obtained:
[1] = system: Cyperus serotinus, Rottb.; test: Preemergence weed control under flooded paddy conditions, CYPSE (Flatsedge); type: in vivo; settings: preemergence; further: meaning of each grade not given here
[2] = system: Monochoria vaginalis, Presl.; test: Postemergence weed control under flooded paddy conditions, MOOVA (Monochoria); type: in vivo; settings: rated three to four weeks after treatment
Sagittaria pygmaea, L. [3] = test: Postemergence weed control under flooded paddy conditions, SAGPY (Arrowhead (Pygmaea)); type: in vivo; settings: rated three to four weeks after treatment
[4] = system: Oryza sativa, (L.) Tebonnet; test: Rice tolerance to post-transplant applications under flooded paddy conditions (Example 187), ORYSAT (Rice, Tebonnet); settings: for herbicidal effect rating ORYSAT: rated 3-4 weeks after treatment; for herbicidal effect rating, ORYSAT (rice tolerance): rated three to four weeks after treatment; on herbicidal effect rating ORYSAT: meaning of each grade not given here
[5] = system: Monochoria vaginalis, Presl.; test: Preemergence weed control under flooded paddy conditions, MOOVA (Monochoria); type: in vivo; settings: preemergence, flooded paddy; further: meaning of each grade not given here
[6] = system: Echinochloa oryzoides (Ard.) Fritsch.; test: Preemergence weed control under flooded paddy conditions, ECHORC (Watergrass (Calif.)); type: in vivo; settings: preemergence, flooded paddy; further: meaning of each grade not given here
[7] = system: Cyperus serotinus, Rottb.; test: Postemergence weed control under flooded paddy conditions, CYPSE (Flatsedge); type: in vivo; settings: rated three to four weeks after treatment
Cyperus iria [8] = test: Preemergence weed control under flooded paddy conditions, CYPIR (Rice Flatsedge); type: in vivo; settings: preemergence, flooded paddy; further: meaning of each grade not given here
Sagittaria pygmaea, L. [9] = test: Preemergence weed control under flooded paddy conditions, SAGPY (Arrowhead (Pygmaea)); type: in vivo; settings: preemergence, flooded paddy; further: meaning of each grade not given here
[10] = system: Oryza sativa, (L.) Tebonnet; test: Rice tolerance to post-transplant applications under flooded paddy conditions (Example 188), ORYSAT (Rice, Tebonnet); settings: rated three to four weeks after treatment
Cyperus iria [11] = test: Postemergence weed control under flooded paddy conditions, CYPIR (Rice Flatsedge); type: in vivo; settings: rated three to four weeks after treatment
[12] = system: Echinochloa oryzoides (Ard.) Fritsch.; test: Postemergence weed control under flooded paddy conditions, ECHORC (Watergrass (Calif.)); type: in vivo; settings: rated three to four weeks after treatment
[13] = Rate 0.0320 kg/ha, rated 3-4 weeks after treatment
[14] = Rate 0.0620 kg/ha, rated 3-4 weeks after treatment
[15] = Rate 0.1250 kg/ha, rated 3-4 weeks after treatment
[16] = Rate 0.2500 kg/ha, rated 3-4 weeks after treatment
[17] = 0.0625 kg/ha, rated three to four weeks after treatment
[18] = 0.1250 kg/ha, rated three to four weeks after treatment
[19] = 0.2500 kg/ha, rated three to four weeks after treatment
[20] = 0.5000 kg/ha, rated three to four weeks after treatment

C#CCOC(=O)C(C)(C)Oc1ccc(C)cc1-c1nsc2ccc(-n3c(=O)cc(C(F)(F)F)n(C)c3=O)cc12 [Example 528, Propionic acid, 2-{{2-{5-[3,6-dihydro-3-methyl-2,6-dioxo-4-(trifluoromethyl)-1(2H)-pyrimidinyl]-1,2-benzisothiazol-3-yl}-p-tolyl}oxy}-2-methyl-, 2-propynyl ester]
3.5: herbicidal effect rating ORYSAT ([4]; Rate 0.0620 kg/ha)
3.0: herbicidal effect rating, SAGPY (Sagittaria pygmaea, L. [3]; Rate 0.2500 kg/ha) | herbicidal effect rating, SAGPY (Sagittaria pygmaea, L. [9]; [16]) | herbicidal effect rating, ORYSAT (rice tolerance) ([10]; Rate 0.2500 kg/ha)
1.5: herbicidal effect rating ORYSAT ([4]; Rate 0.0320 kg/ha) | herbicidal effect rating, SAGPY (Sagittaria pygmaea, L. [9]; [15])
9.0: herbicidal effect rating, MOOVA ([2]; Rate 0.1250 kg/ha) | herbicidal effect rating, MOOVA ([2]; Rate 0.2500 kg/ha) | herbicidal effect rating ORYSAT ([4]; Rate 0.2500 kg/ha) | herbicidal effect rating, MOOVA [5, 13] | herbicidal effect rating, MOOVA [5, 14] | herbicidal effect rating, MOOVA [5, 15] | herbicidal effect rating, MOOVA [5, 16] | herbicidal effect rating, ECHORC [6, 13] | herbicidal effect rating, ECHORC [6, 14] | herbicidal effect rating, ECHORC [6, 15] | herbicidal effect rating, ECHORC [6, 16] | herbicidal effect rating, CYPSE ([7]; Rate 0.2500 kg/ha) | herbicidal effect rating, CYPIR (Cyperus iria [8]; [16]) | herbicidal effect rating, ECHORC ([12]; Rate 0.1250 kg/ha) | herbicidal effect rating, ECHORC ([12]; Rate 0.2500 kg/ha)
0.0: herbicidal effect rating, CYPSE [1, 13] | herbicidal effect rating, CYPSE [1, 14] | herbicidal effect rating, CYPSE [1, 15] | herbicidal effect rating, CYPSE [1, 16] | herbicidal effect rating, MOOVA ([2]; Rate 0.0320 kg/ha) | herbicidal effect rating, MOOVA ([2]; Rate 0.0620 kg/ha) | herbicidal effect rating, SAGPY (Sagittaria pygmaea, L. [3]; Rate 0.0320 kg/ha) | herbicidal effect rating, SAGPY (Sagittaria pygmaea, L. [3]; Rate 0.0620 kg/ha) | herbicidal effect rating, SAGPY (Sagittaria pygmaea, L. [3]; Rate 0.1250 kg/ha) | herbicidal effect rating, CYPSE ([7]; Rate 0.0320 kg/ha) | herbicidal effect rating, CYPSE ([7]; Rate 0.0620 kg/ha) | herbicidal effect rating, CYPSE ([7]; Rate 0.1250 kg/ha) | herbicidal effect rating, SAGPY (Sagittaria pygmaea, L. [9]; [14]) | herbicidal effect rating, ORYSAT (rice tolerance) ([10]; Rate 0.0320 kg/ha) | herbicidal effect rating, ORYSAT (rice tolerance) ([10]; Rate 0.0620 kg/ha) | herbicidal effect rating, ECHORC ([12]; Rate 0.0320 kg/ha)
2.0: herbicidal effect rating, ORYSAT (rice tolerance) ([10]; Rate 0.1250 kg/ha)
6.0: herbicidal effect rating, CYPIR (Cyperus iria [11]; Rate 0.0320 kg/ha) | herbicidal effect rating, CYPIR (Cyperus iria [11]; Rate 0.0620 kg/ha) | herbicidal effect rating, CYPIR (Cyperus iria [11]; Rate 0.1250 kg/ha) | herbicidal effect rating, CYPIR (Cyperus iria [11]; Rate 0.2500 kg/ha)
5.0: herbicidal effect rating, CYPIR (Cyperus iria [8]; [14]) | herbicidal effect rating, CYPIR (Cyperus iria [8]; [15])
4.5: herbicidal effect rating, CYPIR (Cyperus iria [8]; [13])
1.0: herbicidal effect rating, SAGPY (Sagittaria pygmaea, L. [9]; [13])
7.0: herbicidal effect rating ORYSAT ([4]; Rate 0.1250 kg/ha) | herbicidal effect rating, ECHORC ([12]; Rate 0.0620 kg/ha)

Cc1nsc2ccc(-n3c(=O)cc(C(F)(F)F)n(C)c3=O)cc12 [Example 6, 1-Methyl-3-(3-methyl-1,2-benzisothiazol-5-yl)-6-(trifluoromethyl)-2,4(1H,3H)-pyrimidinedione]
4.0: herbicidal effect rating, CYPSE [1, 17] | herbicidal effect rating, SAGPY (Sagittaria pygmaea, L. [3]; Rate 0.0625 kg/ha) | herbicidal effect rating, SAGPY (Sagittaria pygmaea, L. [9]; [17]) | herbicidal effect rating, ORYSAT (rice tolerance) ([10]; Rate 0.0313 kg/ha) | herbicidal effect rating, ORYSAT (rice tolerance) ([10]; Rate 0.0625 kg/ha) | herbicidal effect rating, ECHORC ([12]; Rate 0.0313 kg/ha)
8.0: herbicidal effect rating, SAGPY (Sagittaria pygmaea, L. [3]; Rate 0.2500 kg/ha) | herbicidal effect rating, ORYSAT (rice tolerance) ([4]; 0.0625 kg/ha) | herbicidal effect rating, ORYSAT (rice tolerance) ([4]; 0.1250 kg/ha) | herbicidal effect rating, ORYSAT (rice tolerance) ([4]; 0.2500 kg/ha) | herbicidal effect rating, ORYSAT (rice tolerance) ([4]; 0.5000 kg/ha) | herbicidal effect rating, ECHORC [6, 18]
0.0: herbicidal effect rating, CYPSE ([7]; Rate 0.0313 kg/ha)
2.0: herbicidal effect rating, SAGPY (Sagittaria pygmaea, L. [3]; Rate 0.0313 kg/ha) | herbicidal effect rating, CYPSE ([7]; Rate 0.0625 kg/ha)
7.0: herbicidal effect rating, CYPSE [1, 18] | herbicidal effect rating, CYPSE ([7]; Rate 0.1250 kg/ha) | herbicidal effect rating, CYPSE ([7]; Rate 0.2500 kg/ha) | herbicidal effect rating, SAGPY (Sagittaria pygmaea, L. [9]; [18]) | herbicidal effect rating, SAGPY (Sagittaria pygmaea, L. [9]; [19]) | herbicidal effect rating, ECHORC ([12]; Rate 0.0625 kg/ha)
9.0: herbicidal effect rating, CYPSE [1, 19] | herbicidal effect rating, CYPSE [1, 20] | herbicidal effect rating, MOOVA ([2]; Rate 0.0313 kg/ha) | herbicidal effect rating, MOOVA ([2]; Rate 0.0625 kg/ha) | herbicidal effect rating, MOOVA ([2]; Rate 0.1250 kg/ha) | herbicidal effect rating, MOOVA ([2]; Rate 0.2500 kg/ha) | herbicidal effect rating, MOOVA ([2]; Rate 0.5000 kg/ha) | herbicidal effect rating, SAGPY (Sagittaria pygmaea, L. [3]; Rate 0.5000 kg/ha) | herbicidal effect rating, MOOVA [5, 17] | herbicidal effect rating, MOOVA [5, 18] | herbicidal effect rating, MOOVA [5, 19] | herbicidal effect rating, MOOVA [5, 20] | herbicidal effect rating, ECHORC [6, 19] | herbicidal effect rating, ECHORC [6, 20] | herbicidal effect rating, CYPSE ([7]; Rate 0.5000 kg/ha) | herbicidal effect rating, CYPIR (Cyperus iria [8]; [17]) | herbicidal effect rating, CYPIR (Cyperus iria [8]; [18]) | herbicidal effect rating, CYPIR (Cyperus iria [8]; [19]) | herbicidal effect rating, CYPIR (Cyperus iria [8]; [20]) | herbicidal effect rating, SAGPY (Sagittaria pygmaea, L. [9]; [20]) | herbicidal effect rating, ORYSAT (rice tolerance) ([10]; Rate 0.1250 kg/ha) | herbicidal effect rating, ORYSAT (rice tolerance) ([10]; Rate 0.2500 kg/ha) | herbicidal effect rating, ORYSAT (rice tolerance) ([10]; Rate 0.5000 kg/ha) | herbicidal effect rating, CYPIR (Cyperus iria [11]; Rate 0.0313 kg/ha) | herbicidal effect rating, CYPIR (Cyperus iria [11]; Rate 0.0625 kg/ha) | herbicidal effect rating, CYPIR (Cyperus iria [11]; Rate 0.1250 kg/ha) | herbicidal effect rating, CYPIR (Cyperus iria [11]; Rate 0.2500 kg/ha) | herbicidal effect rating, CYPIR (Cyperus iria [11]; Rate 0.5000 kg/ha) | herbicidal effect rating, ECHORC ([12]; Rate 0.1250 kg/ha) | herbicidal effect rating, ECHORC ([12]; Rate 0.2500 kg/ha) | herbicidal effect rating, ECHORC ([12]; Rate 0.5000 kg/ha)
6.0: herbicidal effect rating, SAGPY (Sagittaria pygmaea, L. [3]; Rate 0.1250 kg/ha) | herbicidal effect rating, ECHORC [6, 17]
